Among the data in PubChem BioAssay AID328 (DTP/NCI, 2004) are T/C values, retold here.

For the experiment, the system named is BDF1 mice, P388 leukemia ip, median survival T/C. The experiment is described as follows: NCI In Vivo Anticancer Drug Screen. Data for tumor model P388 Leukemia (intraperitoneal) in B6D2F1 (BDF1) mice. The settings on record: endpoint: median survival time, higher = longer survival. The method, boiled down:
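Reported as T/C, where T is the survival measurement in dosed animals and C the same measurement in vehicle controls.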

[1] abbreviates: dose: 50.0 mg/kg/injection, schedule: Q01DX009 (ip), vehicle: saline.
Where [2] appears, read: dose: 100.0 mg/kg/injection, schedule: Q01DX009 (ip), vehicle: saline.
[3] abbreviates: dose: 100.0 mg/kg/injection, schedule: Q04DX003 (ip), vehicle: saline with Tween-80.
The mark [4] stands for this setting: dose: 100.0 mg/kg/injection, schedule: Q04DX003 (ip), vehicle: Klucel (hydroxypropylcellulose) (HPC).
Setting [5] is: dose: 200.0 mg/kg/injection, schedule: Q04DX003 (ip), vehicle: Klucel (hydroxypropylcellulose) (HPC).
[6] abbreviates: dose: 25.0 mg/kg/injection, schedule: Q04DX003 (ip), vehicle: saline.
Setting [7] is: dose: 50.0 mg/kg/injection, schedule: Q04DX003 (ip), vehicle: saline.
Setting [8] is: dose: 100.0 mg/kg/injection, schedule: Q04DX003 (ip), vehicle: saline.
[9] abbreviates: dose: 50.0 mg/kg/injection, schedule: Q01DX009 (ip), vehicle: saline with Tween-80.
Setting [10] is: dose: 100.0 mg/kg/injection, schedule: Q01DX009 (ip), vehicle: saline with Tween-80.
The mark [11] stands for this setting: dose: 200.0 mg/kg/injection, schedule: Q01DX009 (ip), vehicle: saline with Tween-80.
The mark [12] stands for this setting: dose: 100.0 mg/kg/injection, schedule: Q01DX009 (ip), vehicle: Klucel (hydroxypropylcellulose) (HPC).
The mark [13] stands for this setting: dose: 200.0 mg/kg/injection, schedule: Q01DX009 (ip), vehicle: Klucel (hydroxypropylcellulose) (HPC).
The mark [14] stands for this setting: dose: 400.0 mg/kg/injection, schedule: Q04DX003 (ip), vehicle: Klucel (hydroxypropylcellulose) (HPC).
Setting [15] is: dose: 25.0 mg/kg/injection, schedule: Q01DX009 (ip), vehicle: Klucel (hydroxypropylcellulose) (HPC).
The mark [16] stands for this setting: dose: 50.0 mg/kg/injection, schedule: Q01DX009 (ip), vehicle: Klucel (hydroxypropylcellulose) (HPC).

“And” between values parts separate entries of the source, which are not always exact repeats. Equal values may be shown once. Inconclusive results and toxic doses are left out.

As to `NS(=O)(=O)c1ccc(Cl)cc1`, the T/C is, setting by setting: (dose: 25.0 mg/kg/injection, schedule: Q01DX009 (ip), vehicle: saline) 113 % of control; under setting [1], 109 % of control; (dose: 75.0 mg/kg/injection, schedule: Q04DX003 (ip), vehicle: saline) 100 % of control; under setting [2], 86 % of control; (dose: 150.0 mg/kg/injection, schedule: Q04DX003 (ip), vehicle: saline) 109 % of control; (dose: 300.0 mg/kg/injection, schedule: Q04DX003 (ip), vehicle: saline) 109 % of control.

For `c1ccc(-n2nc3c(c2OCCN2CCCC2)CCCc2ccccc2-3)cc1`, the T/C is, setting by setting: (dose: 66.0 mg/kg/injection, schedule: Q04DX003 (ip), vehicle: saline with Tween-80) 108 % of control; under setting [3], 104 % of control and 116 % of control.

With `O=Cc1ccc(N2CCCCC2)cc1`, the T/C reads like this: under setting [4], 91 % of control; under setting [5], 95 % of control.

For the molecule `C=CCC(B1OCCO1)B1OCCO1`, the T/C under setting [6] is 95 % of control, the T/C under setting [7] is 90 % of control and the T/C under setting [8] was 100 % of control.

`COc1ccc(CNCCNCc2ccc(OC)c(OC)c2)cc1OC`: the T/C under setting [3] is 115 % of control; the T/C (dose: 200.0 mg/kg/injection, schedule: Q04DX003 (ip), vehicle: saline with Tween-80) is 105 % of control; the T/C (dose: 400.0 mg/kg/injection, schedule: Q04DX003 (ip), vehicle: saline with Tween-80) is 110 % of control.

Regarding `CN(C)CCCc1c2ccccc2nc2ccc(Cl)cc12`, the T/C is 109 % of control (dose: 1.56 mg/kg/injection, schedule: Q01DX009 (ip), vehicle: saline); 90 % of control (dose: 3.12 mg/kg/injection, schedule: Q01DX009 (ip), vehicle: saline); 104 % of control (dose: 6.0 mg/kg/injection, schedule: Q04DX003 (ip), vehicle: saline); 100 % of control and 109 % of control (dose: 6.25 mg/kg/injection, schedule: Q01DX009 (ip), vehicle: saline); 109 % of control (dose: 11.0 mg/kg/injection, schedule: Q01DX009 (ip), vehicle: saline); 109 % of control (dose: 12.0 mg/kg/injection, schedule: Q04DX003 (ip), vehicle: saline). For the same molecule, the T/C reads like this: (dose: 12.5 mg/kg/injection, schedule: Q01DX009 (ip), vehicle: saline) 100 % of control; (dose: 16.0 mg/kg/injection, schedule: Q01DX009 (ip), vehicle: saline) 100 % of control; under setting [6], 109 % of control; (dose: 37.0 mg/kg/injection, schedule: Q01DX009 (ip), vehicle: saline) 118 % of control; under setting [1], 109 % of control.

Regarding `CCCCCCCCCCC[CH2][Hg][CH2]CCCCCCCCCCC`, the T/C was 91 % of control under setting [4] and 100 % of control under setting [5].

Turning to `O=C(/C=C/c1ccc(OCc2ccccc2)cc1)c1ccccc1Cl`, the T/C is 96 % of control under setting [9] and 96 % of control under setting [10].

Take `CN1CC=C(N2CCOCC2)CC1`: the T/C under setting [6] was 120 % of control, the T/C under setting [7] is 120 % of control and the T/C under setting [8] was 120 % of control.

For `CN(C)c1ccc2cc(S(=O)(=O)O)cc(O)c2c1`, the T/C under setting [10] was 95 % of control; the T/C under setting [11] is 91 % of control; the T/C (dose: 400.0 mg/kg/injection, schedule: Q01DX009 (ip), vehicle: saline with Tween-80) is 91 % of control.

With `NC(=S)c1cn(C2OC(CO)C(O)C2O)c2ncnc(N)c12` (configuration not stated), the T/C is 166 % of control (dose: 3.3 mg/kg/injection, schedule: Q01DX009 (ip), vehicle: saline with Tween-80) and 100 % of control (dose: 5.0 mg/kg/injection, schedule: Q01DX009 (ip), vehicle: saline with Tween-80).

Regarding `CCOCCc1ccccn1`, the T/C under setting [2] was 100 % of control; the T/C (dose: 200.0 mg/kg/injection, schedule: Q01DX009 (ip), vehicle: saline) was 104 % of control; the T/C (dose: 400.0 mg/kg/injection, schedule: Q01DX009 (ip), vehicle: saline) is 122 % of control.

In the case of `CC(Oc1cc(Cl)ccc1Cl)C(=O)O` (configuration not stated), the T/C under setting [12] is 90 % of control; the T/C under setting [4] was 100 % of control; the T/C under setting [13] is 100 % of control; the T/C under setting [5] was 104 % of control; the T/C (dose: 400.0 mg/kg/injection, schedule: Q01DX009 (ip), vehicle: Klucel (hydroxypropylcellulose) (HPC)) was 113 % of control; the T/C under setting [14] was 108 % of control.

On to `CN(C1=NS(=O)(=O)N=C(N(C)c2ccccc2)O1)c1ccccc1`, for which the T/C under setting [15] is 122 % of control; the T/C under setting [16] was 102 % of control; the T/C under setting [9] was 89 % of control; the T/C under setting [12] was 115 % of control; the T/C under setting [10] is 99 % of control; the T/C under setting [13] was 105 % of control.

On to `O=C1C(=O)c2ccccc2-c2ccccc21.O=C1C(=O)c2ccccc2-c2ccccc21.[Hg]`, for which the T/C reads like this: (dose: 1.5 mg/kg/injection, schedule: Q01DX009 (ip), vehicle: saline with Tween-80) 110 % of control; (dose: 2.6 mg/kg/injection, schedule: Q01DX009 (ip), vehicle: saline with Tween-80) 100 % of control; (dose: 3.0 mg/kg/injection, schedule: Q01DX009 (ip), vehicle: saline with Tween-80) 112 % of control; (dose: 4.0 mg/kg/injection, schedule: Q01DX009 (ip), vehicle: saline with Tween-80) 110 % of control; (dose: 6.0 mg/kg/injection, schedule: Q01DX009 (ip), vehicle: saline with Tween-80) 116 % of control; (dose: 9.0 mg/kg/injection, schedule: Q01DX009 (ip), vehicle: saline with Tween-80) 110 % of control.

Turning to `Clc1nnc(Nc2ccccc2)c2ccccc12`, the T/C is 100 % of control (dose: 100.0 mg/kg/injection, schedule: Q01DX001 (ip), vehicle: Klucel (hydroxypropylcellulose) (HPC)); 91 % of control (dose: 200.0 mg/kg/injection, schedule: Q01DX001 (ip), vehicle: Klucel (hydroxypropylcellulose) (HPC)); 104 % of control (dose: 400.0 mg/kg/injection, schedule: Q01DX001 (ip), vehicle: Klucel (hydroxypropylcellulose) (HPC)).

As for `NOCc1cccc([N+](=O)[O-])c1`, the T/C runs as follows: under setting [7], 100 % of control; under setting [8], 91 % of control; (dose: 200.0 mg/kg/injection, schedule: Q04DX003 (ip), vehicle: saline) 91 % of control.

As for `Nc1nc(-c2ccccc2N=NN2CCN(N=Nc3ccccc3-c3nc(N)c4ccccc4n3)CC2)nc2ccccc12`, the T/C reads like this: (dose: 0.78 mg/kg/injection, schedule: Q01DX009 (ip), vehicle: Klucel (hydroxypropylcellulose) (HPC)) 100 % of control; (dose: 1.56 mg/kg/injection, schedule: Q01DX009 (ip), vehicle: Klucel (hydroxypropylcellulose) (HPC)) 102 % of control; (dose: 3.13 mg/kg/injection, schedule: Q01DX009 (ip), vehicle: Klucel (hydroxypropylcellulose) (HPC)) 111 % of control; (dose: 6.25 mg/kg/injection, schedule: Q01DX009 (ip), vehicle: Klucel (hydroxypropylcellulose) (HPC)) 107 % of control and 110 % of control; (dose: 12.5 mg/kg/injection, schedule: Q01DX009 (ip), vehicle: Klucel (hydroxypropylcellulose) (HPC)) 102 % of control; under setting [15], 108 % of control. The T/C under setting [16] was 105 % of control.

Regarding `N#CC1OC(COC(=O)c2ccccc2)C(O)C1O` (configuration not stated), the T/C by setting is: under setting [9], 101 % of control; under setting [10], 94 % of control; under setting [11], 88 % of control.

Turning to `CC(=O)O[C@H]1CC[C@H]2[C@@H]3CC[C@H]4CC=C(C#N)C[C@]4(C)[C@H]3CC[C@]12C`, the T/C (dose: 0.75 mg/kg/injection, schedule: Q01DX009 (ip), vehicle: Klucel (hydroxypropylcellulose) (HPC)) was 95 % of control; the T/C (dose: 1.5 mg/kg/injection, schedule: Q01DX009 (ip), vehicle: Klucel (hydroxypropylcellulose) (HPC)) was 92 % of control and 100 % of control; the T/C (dose: 3.0 mg/kg/injection, schedule: Q01DX009 (ip), vehicle: Klucel (hydroxypropylcellulose) (HPC)) is 104 % of control; the T/C (dose: 6.0 mg/kg/injection, schedule: Q01DX009 (ip), vehicle: Klucel (hydroxypropylcellulose) (HPC)) was 103 % of control; the T/C under setting [15] was 88 % of control; the T/C under setting [16] is 100 % of control. The T/C is, setting by setting: under setting [12], 95 % of control; under setting [4], 109 % of control; under setting [13], 100 % of control; under setting [5], 109 % of control; under setting [14], 86 % of control.
